As a reminder, the pIC50 is the IC50 on a negative log10 scale, so that one unit is a factor of ten. Lower therefore signals a large IC50.

For one data set, the system named is cell cultures. The following applies: cited from earlier work.
The conditions of data set [1]: oral metformin; cited from earlier work.
For another data set, the system named is Panc-1 cells. Nature of the data set: Panc-1 cell growth (optical density). Type of data set: cell-based. The note with it: Homo sapiens. As to the method: The ability of the dendrimers was also tested for their ability to deliver metformin to Panc-1 cells, a human pancreatic cancer cell line. Specifically, Panc-1 cells were exposed to metformin, PAMAM-OH, and P4-MET.

In the next data set the test system is UNKPC cells. Nature of the data set: UNKPC cell growth (optical density). Type of data set: cell-based. As to the method: The ability of the dendrimers was also tested for their ability to deliver metformin to UNKPC cells, a pancreatic cancer cell line. Specifically, […] were exposed to metformin, PAMAM-OH, or P4-MET.
Another data set has as its system U87MG cells. Nature of the data set: U87MG cell growth (optical density). Type of data set: cell-based. The following applies: Homo sapiens, U-87 MG. As to the method: FIGS. 2A-2D provide graphs of U87MG growth at the indicated concentrations of metformin (FIG. 2A), PAMAM-OH (FIG. 2B), PAMAM-OH and metformin (FIG. 2C), and P4-MET (FIG. 2D).
The ability of the dendrimers was tested for their ability to deliver metformin to U87MG cells, a human glioma cell line sensitive to metformin. Specifically, U87MG cells were exposed to metformin, PAMAM-OH, PAMAM-OH with metformin, or P4-MET.

Data set [2] concerns bone marrow-derived macrophages (BMDM). Nature of the data set: BMDM growth (optical density). Type of data set: cell-based. The following applies: Mus musculus; BMDM cells, 72 hours. As to the method: FIGS. 5A-5D provide graphs of bone marrow-derived macrophages (BMDM) growth at the indicated concentrations of metformin (FIG. 5A), PAMAM-OH (FIG. 5B), PAMAM-OH and metformin (FIG. 5C), and P4-MET (FIG. 5D).
The ability of the dendrimers was also tested for their ability to deliver metformin to bone marrow-derived macrophages (BMDM). Specifically, BMDM cells were exposed to metformin, PAMAM-OH, PAMAM-OH with metformin, or P4-MET for 72 hours.

The conditions of data set [3]: in vivo; cited from earlier work.
A further data set has as its system MGPP3 cells. Nature of the data set: MGPP3 cell growth (optical density). It is filed as cell-based. The following applies: Mus musculus. As to the method:
FIGS. 4A-4D provide graphs of MGPP3 growth at the indicated concentrations of metformin (FIG. 4A), PAMAM-OH (FIG. 4B), PAMAM-OH and metformin (FIG. 4C), and P4-MET (FIG. 4D).
The ability of the dendrimers was also tested for their ability to deliver metformin to MGPP3 cells, a mouse glioblastoma cell line sensitive to metformin. Specifically, MGPP3 cells were exposed to metformin, PAMAM-OH, PAMAM-OH with metformin, or P4-MET.

The next data set has as its system Ln229 cells. The data set is described as follows: Ln229 cell growth (optical density). The following applies: Homo sapiens, LN-229. It is filed as cell-based. As to the method:
FIGS. 3A-3D provide graphs of Ln229 growth at the indicated concentrations of metformin (FIG. 3A), PAMAM-OH (FIG. 3B), PAMAM-OH and metformin (FIG. 3C), and P4-MET (FIG. 3D).
The ability of the dendrimers was also tested for their ability to deliver metformin to Ln229 cells, a human glioblastoma cell line sensitive to metformin. Specifically, Ln229 cells were exposed to metformin, PAMAM-OH, PAMAM-OH with metformin, or P4-MET.

Each structure is given as a SMILES string. pIC50: −log10 of the molar value.

For the compound `CN(C)C(=N)NC(=N)N` [metformin, 1,1-dimethylbiguanide], in the data set with cell cultures, the “typical effective concentration in cell cultures” value is on record as “in the mM range”. In data set [1], the “pharmacological concentrations in patients” value is recorded as “less than 50 μM”. Also, the negative logarithm of the IC50 (pIC50) in the data set with Panc-1 cells was 2.28; in the data set on UNKPC cells it was 2.79; in the data set on U87MG cells it was 1.84; in [2], 2.45; in the data set on MGPP3 cells, 1.90; with Ln229 cells, 3.00. The “gastrointestinal-related side effects, share of patients” value in data set [3] is on record as 20-30%.

Values taken from US20250195670A1, “METFORMIN NANOFORMULATIONS AND METHODS OF USE THEREOF” (priority 2022, published 2025).
